The target in one assay is transferrin receptor (hTfR) (Homo sapiens, UniProt P02786). The experiment in a line: Intermolecular interaction evaluation test between transferrin receptor (hTfR) and peptide by surface plasmon resonance (SPR). Format: binding. As to conditions: SPR; linker and payload (FITC, VivoTag) conjugates; read-out: KD. A digest of the protocol: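 Receptor was Ni-captured and EDC/NHS-fixed on an NTA chip; running buffer HEPES pH 8.0 with NaCl, Tween 20, BSA and 1.0% DMSO.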
transferrin receptor (hTfR), sequence (P02786 whole entry): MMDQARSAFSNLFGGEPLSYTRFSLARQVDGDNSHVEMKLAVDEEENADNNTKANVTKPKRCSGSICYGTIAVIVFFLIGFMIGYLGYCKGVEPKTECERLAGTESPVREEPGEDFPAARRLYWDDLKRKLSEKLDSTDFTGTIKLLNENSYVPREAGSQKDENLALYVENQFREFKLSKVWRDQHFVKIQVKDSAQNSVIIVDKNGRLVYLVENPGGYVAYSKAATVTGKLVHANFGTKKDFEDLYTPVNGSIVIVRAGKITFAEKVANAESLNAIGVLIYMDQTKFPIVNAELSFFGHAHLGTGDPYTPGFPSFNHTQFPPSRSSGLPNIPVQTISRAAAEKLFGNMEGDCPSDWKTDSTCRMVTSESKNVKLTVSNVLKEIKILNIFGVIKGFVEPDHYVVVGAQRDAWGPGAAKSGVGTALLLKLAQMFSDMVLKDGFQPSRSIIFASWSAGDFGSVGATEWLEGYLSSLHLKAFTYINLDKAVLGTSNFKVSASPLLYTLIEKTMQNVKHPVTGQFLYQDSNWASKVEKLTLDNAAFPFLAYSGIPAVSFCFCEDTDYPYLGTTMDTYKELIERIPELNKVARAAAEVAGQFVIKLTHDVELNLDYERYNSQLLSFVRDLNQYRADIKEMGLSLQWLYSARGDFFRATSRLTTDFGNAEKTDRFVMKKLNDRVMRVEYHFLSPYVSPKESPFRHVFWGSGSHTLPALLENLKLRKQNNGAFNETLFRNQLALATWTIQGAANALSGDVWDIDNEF
On the technique in general: In SPR one partner is held on a chip, and binding of the other changes the refractive index at the surface.
The Kd is a measure of binding affinity in units of concentration. Consider `CC[C@H](C)[C@@H]1NC(=O)[C@H](Cc2ccc(O)cc2)NC(=O)[C@H](Cc2ccc(O)cc2)NC(=O)[C@H](CC(N)=O)NC(=O)[C@H](Cc2c[nH]c3ccccc23)NC(=O)[C@H](C(C)C)NC(=O)[C@H](Cc2ccccc2)NC(=O)[C@H](C(C)C)NC(=O)[C@H](C)NC(=O)CSC[C@@H](C(=O)NCCOCCOCCOCCOCCC(=O)N[C@@H](CNC(=O)c2ccc(-c3c4ccc(=O)cc-4oc4cc(O)ccc34)c(C(=O)O)c2)C(N)=O)NC(=O)[C@H](Cc2ccc(O)cc2)N(C)C(=O)[C@H](Cc2ccc(O)cc2)NC(=O)[C@H](CCCNC(=N)N)NC(=O)[C@H](CCCNC(=N)N)NC(=O)[C@H]([C@@H](C)CC)NC1=O` [compound 159], for which the Kd fell in the range of 1 to 100 nM.

As to `CC[C@H](C)[C@@H]1NC(=O)[C@H](Cc2ccc(O)cc2)NC(=O)[C@H](Cc2ccc(O)cc2)NC(=O)[C@H](CC(N)=O)NC(=O)[C@H](Cc2c[nH]c3ccccc23)NC(=O)[C@H](C(C)C)NC(=O)[C@H](Cc2ccccc2)NC(=O)[C@H](C(C)C)NC(=O)[C@H](C)NC(=O)CSC[C@H](C(=O)NCCOCCOCCOCCOCCC(=O)N[C@@H](CNC(=O)c2ccc(-c3c4ccc(=O)cc-4oc4cc(O)ccc34)c(C(=O)O)c2)C(N)=O)NC(=O)[C@H](Cc2ccc(O)cc2)N(C)C(=O)[C@H](Cc2ccc(O)cc2)NC(=O)[C@H](CCCNC(=N)N)NC(=O)[C@H](CCCNC(=N)N)NC(=O)[C@H]([C@@H](C)CC)NC1=O` [compound 160], the Kd lay in the range of 1 to 100 nM.

As to `CC[C@H](C)[C@@H]1NC(=O)[C@H](Cc2ccc(O)cc2)NC(=O)[C@H](Cc2ccc(O)cc2)NC(=O)[C@H](CC(N)=O)NC(=O)[C@H](Cc2c[nH]c3ccccc23)NC(=O)[C@H](C(C)C)NC(=O)[C@H](Cc2ccccc2)NC(=O)[C@H](C(C)C)NC(=O)[C@H](C)N(C)C(=O)CSC[C@@H](C(=O)NCCOCCOCCOCCOCCC(=O)N[C@@H](CNC(=O)c2ccc(-c3c4ccc(=O)cc-4oc4cc(O)ccc34)c(C(=O)O)c2)C(N)=O)NC(=O)[C@H](Cc2ccc(O)cc2)N(C)C(=O)[C@H](Cc2ccc(O)cc2)NC(=O)[C@H](CCCNC(=N)N)NC(=O)[C@H](CCCNC(=N)N)NC(=O)[C@H]([C@@H](C)CC)NC1=O` [compound 161], the Kd was 1 to 100 nM. Take `CC[C@H](C)[C@@H]1NC(=O)[C@H](Cc2ccc(O)cc2)NC(=O)[C@H](Cc2ccc(O)cc2)NC(=O)[C@H](CC(N)=O)NC(=O)[C@H](Cc2c[nH]c3ccccc23)NC(=O)[C@H](C(C)C)NC(=O)[C@H](Cc2ccccc2)N(C)C(=O)[C@H](C(C)C)NC(=O)[C@H](C)NC(=O)CSC[C@@H](C(=O)NCCOCCOCCOCCOCCC(=O)N[C@@H](CNC(=O)c2ccc(-c3c4ccc(=O)cc-4oc4cc(O)ccc34)c(C(=O)O)c2)C(N)=O)NC(=O)[C@H](Cc2ccc(O)cc2)N(C)C(=O)[C@H](Cc2ccc(O)cc2)NC(=O)[C@H](CCCNC(=N)N)NC(=O)[C@H](CCCNC(=N)N)NC(=O)[C@H]([C@@H](C)CC)NC1=O` [compound 162]: the Kd fell in the range of 1 to 100 nM. Take `CC[C@H](C)[C@@H]1NC(=O)[C@H](Cc2ccc(O)cc2)NC(=O)[C@H](Cc2ccc(O)cc2)NC(=O)[C@H](CC(N)=O)NC(=O)[C@H](Cc2c[nH]c3ccccc23)N(C)C(=O)[C@H](C(C)C)NC(=O)[C@H](Cc2ccccc2)NC(=O)[C@H](C(C)C)NC(=O)[C@H](C)NC(=O)CSC[C@@H](C(=O)NCCOCCOCCOCCOCCC(=O)N[C@@H](CNC(=O)c2ccc(-c3c4ccc(=O)cc-4oc4cc(O)ccc34)c(C(=O)O)c2)C(N)=O)NC(=O)[C@H](Cc2ccc(O)cc2)N(C)C(=O)[C@H](Cc2ccc(O)cc2)NC(=O)[C@H](CCCNC(=N)N)NC(=O)[C@H](CCCNC(=N)N)NC(=O)[C@H]([C@@H](C)CC)NC1=O` [compound 163]: the Kd was 1 to 100 nM. In the case of `CC[C@H](C)[C@@H]1NC(=O)[C@H](Cc2ccc(O)cc2)NC(=O)[C@H](Cc2ccc(O)cc2)NC(=O)[C@H](CC(N)=O)NC(=O)[C@H](Cc2c[nH]c3ccccc23)NC(=O)[C@H](C(C)C)NC(=O)[C@H](Cc2ccccc2)NC(=O)[C@H](C(C)C)NC(=O)[C@H](C)NC(=O)CSC[C@@H](C(=O)NCCOCCOCCOCCOCCC(=O)N[C@@H](CNC(=O)c2ccc(-c3c4ccc(=O)cc-4oc4cc(O)ccc34)c(C(=O)O)c2)C(N)=O)NC(=O)[C@H](Cc2ccc(O)cc2)N(C)C(=O)[C@H](Cc2ccc(O)cc2)NC(=O)[C@H](CCCNC(=N)N)NC(=O)[C@H](CCCNC(=N)N)N(C)C(=O)[C@H]([C@@H](C)CC)NC1=O` [compound 164], the Kd is 1 to 100 nM.

Staying with this assay, now noted: hTfR binding by SPR; hTfR No. 894 variant peptides, linker-added peptides and payload conjugates (Table 2); read-out: KD value obtained from the SPR measurement.
Take `CC[C@H](C)[C@@H]1NC(=O)[C@H](Cc2ccc(O)cc2)NC(=O)[C@H](Cc2ccc(O)cc2)NC(=O)[C@H](CC(N)=O)NC(=O)[C@H](Cc2c[nH]c3ccccc23)NC(=O)[C@H](C(C)C)NC(=O)[C@H](Cc2ccccc2)N(C)C(=O)[C@H](C(C)C)NC(=O)[C@H](C)NC(=O)CSC[C@@H](C(=O)NCCOCCOCCOCCOCCC(=O)NCCOCCOCCOCCOCCC(=O)N[C@@H](CCCCNC(=O)C2CCC(CN3C(=O)C=CC3=O)CC2)C(N)=O)NC(=O)[C@H](Cc2ccc(O)cc2)N(C)C(=O)[C@H](Cc2ccc(O)cc2)NC(=O)[C@H](CCCNC(=N)N)NC(=O)[C@H](CCCNC(=N)N)NC(=O)[C@H]([C@@H](C)CC)NC1=O` (some centres unmarked) [compound 181]: the Kd was below 1 nM.

In the case of `CC[C@H](C)[C@@H]1NC(=O)[C@H](Cc2ccc(O)cc2)NC(=O)[C@H](Cc2ccc(O)cc2)NC(=O)[C@H](CC(N)=O)NC(=O)[C@H](Cc2c[nH]c3ccccc23)NC(=O)[C@H](C(C)C)NC(=O)[C@H](Cc2ccccc2)N(C)C(=O)[C@H](C(C)C)NC(=O)[C@H](C)NC(=O)CSC[C@@H](C(=O)NCCOCCOCCOCCOCCC(=O)NCCOCCOCCOCCOCCC(=O)NCCOCCOCCOCCOCCC(=O)N[C@@H](CCCCNC(=O)C2CCC(CN3C(=O)C=CC3=O)CC2)C(N)=O)NC(=O)[C@H](Cc2ccc(O)cc2)N(C)C(=O)[C@H](Cc2ccc(O)cc2)NC(=O)[C@H](CCCNC(=N)N)NC(=O)[C@H](CCCNC(=N)N)NC(=O)[C@H]([C@@H](C)CC)NC1=O` (some centres unmarked) [compound 182], the Kd is 1 to 100 nM. Still for that read-out and setting: next, `CC[C@H](C)[C@@H]1NC(=O)[C@H](Cc2ccc(O)cc2)NC(=O)[C@H](Cc2ccc(O)cc2)NC(=O)[C@H](CC(N)=O)NC(=O)[C@H](Cc2c[nH]c3ccccc23)N(C)C(=O)[C@H](C(C)C)NC(=O)[C@H](Cc2ccccc2)N(C)C(=O)[C@H](C(C)C)NC(=O)[C@H](C)NC(=O)CSC[C@@H](C(=O)NCCOCCOCCOCCOCCOCCOCCOCCOCCOCCOCCOCCOCCC(=O)N[C@@H](CCCCNC(=O)C2CCC(CN3C(=O)C=CC3=O)CC2)C(N)=O)NC(=O)[C@H](Cc2ccc(O)cc2)N(C)C(=O)[C@H](Cc2ccc(O)cc2)NC(=O)[C@H](CCCNC(=N)N)NC(=O)[C@H](CCCNC(=N)N)NC(=O)[C@H]([C@@H](C)CC)NC1=O` (some centres unmarked) [compound 183]: 1 to 100 nM; `CC[C@H](C)[C@@H]1NC(=O)[C@H](Cc2ccc(O)cc2)NC(=O)[C@H](Cc2ccc(O)cc2)NC(=O)[C@H](CC(N)=O)NC(=O)[C@H](Cc2c[nH]c3ccccc23)N(C)C(=O)[C@H](C(C)C)NC(=O)[C@H](Cc2ccccc2)N(C)C(=O)[C@H](C(C)C)NC(=O)[C@H](C)NC(=O)CSC[C@@H](C(=O)NCCOCCOCCOCCOCCC(=O)N[C@@H](CCCCNC(=O)C2CCC(CN3C(=O)C=CC3=O)CC2)C(N)=O)NC(=O)[C@H](Cc2ccc(O)cc2)N(C)C(=O)[C@H](Cc2ccc(O)cc2)NC(=O)[C@H](CCCNC(=N)N)NC(=O)[C@H](CCCNC(=N)N)NC(=O)[C@H]([C@@H](C)CC)NC1=O` (some centres unmarked) [compound 184]: 1 to 100 nM; `CC[C@H](C)[C@@H]1NC(=O)[C@H](Cc2ccc(O)cc2)NC(=O)[C@H](Cc2ccc(O)cc2)NC(=O)[C@H](CC(N)=O)NC(=O)[C@H](Cc2c[nH]c3ccccc23)N(C)C(=O)[C@H](C(C)C)NC(=O)[C@H](Cc2ccccc2)N(C)C(=O)[C@H](C(C)C)NC(=O)[C@H](C)NC(=O)CSC[C@@H](C(=O)NCCOCCOCCOCCOCCOCCOCCOCCOCCC(=O)N[C@@H](CCCCNC(=O)C2CCC(CN3C(=O)C=CC3=O)CC2)C(N)=O)NC(=O)[C@H](Cc2ccc(O)cc2)N(C)C(=O)[C@H](Cc2ccc(O)cc2)NC(=O)[C@H](CCCNC(=N)N)NC(=O)[C@H](CCCNC(=N)N)NC(=O)[C@H]([C@@H](C)CC)NC1=O` (some centres unmarked) [compound 185]: 1 to 100 nM.

Consider `CC[C@H](C)[C@@H]1NC(=O)[C@H](Cc2ccc(O)cc2)NC(=O)[C@H](Cc2ccc(O)cc2)NC(=O)[C@H](CC(N)=O)NC(=O)[C@H](Cc2c[nH]c3ccccc23)NC(=O)[C@H](C(C)C)NC(=O)[C@H](Cc2ccccc2)N(C)C(=O)[C@H](C(C)C)NC(=O)[C@H](C)NC(=O)CSC[C@@H](C(=O)N[C@@H](CCCCNC(=O)C2CCC(CN3C(=O)C=CC3=O)CC2)C(N)=O)NC(=O)[C@H](Cc2ccc(O)cc2)N(C)C(=O)[C@H](Cc2ccc(O)cc2)NC(=O)[C@H](CCCNC(=N)N)NC(=O)[C@H](CCCNC(=N)N)NC(=O)[C@H]([C@@H](C)CC)NC1=O` (some centres unmarked) [compound 186], for which the Kd lay within 1 to 100 nM. As for `CC[C@H](C)[C@@H]1NC(=O)[C@H](Cc2ccc(O)cc2)NC(=O)[C@H](Cc2ccc(O)cc2)NC(=O)[C@H](CC(N)=O)NC(=O)[C@H](Cc2c[nH]c3ccccc23)NC(=O)[C@H](C(C)C)NC(=O)[C@H](Cc2ccccc2)N(C)C(=O)[C@H](C(C)C)NC(=O)[C@H](C)NC(=O)CSC[C@@H](C(=O)NCC(=O)NCC(=O)NCC(=O)N[C@@H](CO)C(=O)N[C@@H](CO)C(=O)N[C@@H](CCCCNC(=O)C2CCC(CN3C(=O)C=CC3=O)CC2)C(N)=O)NC(=O)[C@H](Cc2ccc(O)cc2)N(C)C(=O)[C@H](Cc2ccc(O)cc2)NC(=O)[C@H](CCCNC(=N)N)NC(=O)[C@H](CCCNC(=N)N)NC(=O)[C@H]([C@@H](C)CC)NC1=O` (some centres unmarked) [compound 187], the Kd is 1 to 100 nM. Still for that read-out and setting: the result for `CC[C@H](C)[C@@H]1NC(=O)[C@H](Cc2ccc(O)cc2)NC(=O)[C@H](Cc2ccc(O)cc2)NC(=O)[C@H](CC(N)=O)NC(=O)[C@H](Cc2c[nH]c3ccccc23)NC(=O)[C@H](C(C)C)NC(=O)[C@H](Cc2ccccc2)N(C)C(=O)[C@H](C(C)C)NC(=O)[C@H](C)NC(=O)CSC[C@@H](C(=O)NCC(=O)N[C@@H](CCCCNC(=O)C2CCC(CN3C(=O)C=CC3=O)CC2)C(N)=O)NC(=O)[C@H](Cc2ccc(O)cc2)N(C)C(=O)[C@H](Cc2ccc(O)cc2)NC(=O)[C@H](CCCNC(=N)N)NC(=O)[C@H](CCCNC(=N)N)NC(=O)[C@H]([C@@H](C)CC)NC1=O` (some centres unmarked) [compound 188] reads 1 to 100 nM.

These data come from US20230203098A1, “HUMAN TRANSFERRIN RECEPTOR BINDING PEPTIDE” (priority 2020, published 2023).
